We go through 15 compounds from patent US20230139171A1 (SITA Information Networking Computing UK Limited, priority 2019, published 2023).

pIC50: −log10 of the molar value.

One assay addresses T1, human TLR8 (Homo sapiens, UniProt Q9NR97).
T1 construct: host or cells: HEK-Blue cells
T1 sequence (Q9NR97 27-1041): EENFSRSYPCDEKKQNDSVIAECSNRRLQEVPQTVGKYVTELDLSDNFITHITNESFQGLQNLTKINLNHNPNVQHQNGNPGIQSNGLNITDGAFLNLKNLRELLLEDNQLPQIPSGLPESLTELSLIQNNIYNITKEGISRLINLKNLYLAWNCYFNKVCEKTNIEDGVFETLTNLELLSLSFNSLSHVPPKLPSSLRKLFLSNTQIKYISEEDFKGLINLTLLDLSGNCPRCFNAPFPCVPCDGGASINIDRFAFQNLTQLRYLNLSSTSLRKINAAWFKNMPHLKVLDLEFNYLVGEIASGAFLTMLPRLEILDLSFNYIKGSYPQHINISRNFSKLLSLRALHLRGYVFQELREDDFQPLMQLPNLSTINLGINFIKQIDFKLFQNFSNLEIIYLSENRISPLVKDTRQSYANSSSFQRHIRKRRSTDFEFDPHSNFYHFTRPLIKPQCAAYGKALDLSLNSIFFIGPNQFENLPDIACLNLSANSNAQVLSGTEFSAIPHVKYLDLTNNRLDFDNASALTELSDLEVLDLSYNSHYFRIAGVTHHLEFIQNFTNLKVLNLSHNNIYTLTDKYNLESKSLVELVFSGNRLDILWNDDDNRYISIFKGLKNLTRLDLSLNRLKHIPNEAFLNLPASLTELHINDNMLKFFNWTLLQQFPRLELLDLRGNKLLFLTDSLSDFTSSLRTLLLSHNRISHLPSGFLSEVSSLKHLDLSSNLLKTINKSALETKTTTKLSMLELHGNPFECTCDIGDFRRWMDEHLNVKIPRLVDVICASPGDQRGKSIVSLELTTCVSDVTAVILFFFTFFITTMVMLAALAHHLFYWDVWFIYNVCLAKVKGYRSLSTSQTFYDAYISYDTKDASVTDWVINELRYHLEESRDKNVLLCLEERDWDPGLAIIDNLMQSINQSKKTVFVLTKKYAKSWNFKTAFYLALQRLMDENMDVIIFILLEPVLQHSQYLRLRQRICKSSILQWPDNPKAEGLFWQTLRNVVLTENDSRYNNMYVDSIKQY
The assay can be described thus: TLR8 inhibition reporter assay (HEK-Blue cells, SEAP reporter, R848 stimulation). The conditions noted are these: HEK-Blue cells overexpressing human TLR8, SEAP reporter, R848 15.9 μM; read-out: TLR8 IC50. The assay is classed as cell-based. How it is done:
(§1) TLR7/8/9 Inhibition Reporter Assays
(§2) HEK-Blue™-cells (Invivogen) overexpressing human TLR7, TLR8 or TLR9 receptors were used for screening inhibitors of these receptors using an inducible SEAP (secreted embryonic alkaline phosphatase) reporter gene under the control of the IFN-β minimal promoter fused to five NF-κB and AP-1-binding sites. Briefly, cells are seeded into Greiner 384 well plates (15000 cells per well for TLR7, 20,000 for TLR8 and 25,000 for TLR9) and then treated with test compounds in DMSO to yield a final dose response concentration range of 0.05 nM-50 μM. After a 30 minute compound pre-treatment at room temperature, the cells are then stimulated with a TLR7 ligand (gardiquimod at a final concentration of 7.5 μM), TLR8 ligand (R848 at a final concentration of 15.9 μM) or TLR9 ligand (ODN2006 at a final concentration of 5 nM) to activate NF-κB and AP-1 which induce the production of SEAP. After a 22 hour incubation at 37° C., 5% CO2, SEAP levels are determined with the addition of HEK-Blue™ Detection reagent (Invivogen), a cell culture medium that allows for detection of SEAP, according to manufacturer's specifications. The percent inhibition is determined as the % reduction in the HEK-Blue signal present in wells treated with agonist plus DMSO alone compared to wells treated with a known inhibitor.

For the next assay, the target named is T2, human TLR7 (Homo sapiens, UniProt Q9NYK1).
T2 construct: host or cells: HEK-Blue cells
T2 sequence (Q9NYK1 27-1049): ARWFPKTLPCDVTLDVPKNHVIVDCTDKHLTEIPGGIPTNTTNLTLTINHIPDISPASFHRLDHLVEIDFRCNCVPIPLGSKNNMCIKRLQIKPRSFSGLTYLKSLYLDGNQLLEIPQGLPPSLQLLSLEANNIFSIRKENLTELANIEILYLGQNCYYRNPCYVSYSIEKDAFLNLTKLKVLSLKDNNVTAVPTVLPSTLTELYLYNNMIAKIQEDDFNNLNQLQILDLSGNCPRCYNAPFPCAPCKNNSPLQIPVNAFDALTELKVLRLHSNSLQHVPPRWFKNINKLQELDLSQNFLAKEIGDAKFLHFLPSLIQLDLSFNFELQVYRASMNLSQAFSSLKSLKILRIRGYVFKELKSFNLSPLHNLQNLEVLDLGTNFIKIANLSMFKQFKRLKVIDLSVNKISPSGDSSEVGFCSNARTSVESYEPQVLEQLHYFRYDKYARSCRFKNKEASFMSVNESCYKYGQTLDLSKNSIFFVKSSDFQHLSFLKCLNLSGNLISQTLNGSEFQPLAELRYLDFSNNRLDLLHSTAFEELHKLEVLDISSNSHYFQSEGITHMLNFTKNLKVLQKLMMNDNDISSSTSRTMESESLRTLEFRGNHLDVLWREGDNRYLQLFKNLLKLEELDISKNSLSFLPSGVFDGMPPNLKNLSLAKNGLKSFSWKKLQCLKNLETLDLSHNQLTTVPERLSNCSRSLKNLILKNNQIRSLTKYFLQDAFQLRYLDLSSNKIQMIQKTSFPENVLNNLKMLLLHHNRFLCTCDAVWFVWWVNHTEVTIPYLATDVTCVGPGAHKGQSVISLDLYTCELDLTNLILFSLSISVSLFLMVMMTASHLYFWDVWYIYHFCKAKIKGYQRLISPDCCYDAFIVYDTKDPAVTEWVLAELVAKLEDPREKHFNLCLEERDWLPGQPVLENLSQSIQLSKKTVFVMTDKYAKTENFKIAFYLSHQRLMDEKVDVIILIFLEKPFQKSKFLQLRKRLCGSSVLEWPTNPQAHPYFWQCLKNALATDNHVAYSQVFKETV
The assay can be described thus: TLR7 inhibition reporter assay (HEK-Blue cells, SEAP reporter, gardiquimod stimulation). The assay is classed as cell-based. As to conditions: HEK-Blue cells overexpressing human TLR7, SEAP reporter, gardiquimod 7.5 μM; read-out: TLR7 IC50. The procedure:
as §1, §2
(A reporter such as luciferase makes a cellular process visible.)

One may read the pIC50 as the IC50 on a negative log10 scale, so that one unit is a factor of ten. Consider `CC(C)c1c(-c2cn(C)c3ncccc23)[nH]c2sc(C3CCN(CC(N)=O)CC3)nc12` [Example 31, 2-(4-(6-isopropyl-5-(1-methyl-1H-pyrrolo[2,3-b]pyridin-3-yl)-4H-pyrrolo[3,2-d]thiazol-2-yl)piperidin-1-yl) acetamide], for which the pIC50 is 8.52 at human TLR8 and 8.40 at human TLR7.

Take `CC(C)c1c(-c2cn(C)c3ncccc23)[nH]c2sc(C3CCN(C(=O)CN(C)C)CC3)nc12` [Example 32, 2-(dimethylamino)-1-(4-(6-isopropyl-5-(1-methyl-1H-pyrrolo[2,3-b]pyridin-3-yl)-4H-pyrrolo[3,2-d]thiazol-2-yl)piperidin-1-yl)ethan-1-one]: the negative-log IC50 (pIC50) at human TLR8 is 7.80; on human TLR7 it was 8.47.

As for `CC(C)c1c(-c2cn(C)c3ncccc23)[nH]c2sc(C3CCN(CCS(C)(=O)=O)CC3)nc12` [Example 33, 6-isopropyl-5-(1-methyl-1H-pyrrolo[2,3-b]pyridin-3-yl)-2-(1-(2-(methylsulfonyl)ethyl)piperidin-4-yl)-4H-pyrrolo[3,2-d]thiazole], the pIC50 on human TLR8 is 8.82; on human TLR7 it was 8.41.

With `CC(C)c1c(-c2cn(C)c3ncccc23)[nH]c2sc(C3CCN(C4COC4)CC3)nc12` [Example 34, 6-isopropyl-5-(1-methyl-1H-pyrrolo[2,3-b]pyridin-3-yl)-2-(1-(oxetan-3-yl)piperidin-4-yl)-4H-pyrrolo[3,2-d]thiazole], the figures for the negative-log IC50 (pIC50) at human TLR8 and on human TLR7 were 8.31 and 8.35, respectively.

On to `Cc1c(-c2[nH]c3sc(C4CCN(C5COC5)CC4)nc3c2C(C)C)cn2ncnc2c1C` [Example 43, 5-(7,8-dimethyl-[1,2,4]triazolo[1,5-a]pyridin-6-yl)-6-isopropyl-2-(1-(oxetan-3-yl)piperidin-4-yl)-4H-pyrrolo[3,2-d]thiazole], for which the values for the pIC50 at human TLR8 and on human TLR7 were 8.28 and 8.60, respectively.

Consider `Cc1c(-c2[nH]c3sc(C4CCN(CCS(C)(=O)=O)CC4)nc3c2C(C)C)cn2ncnc2c1C` [Example 55, 5-(7,8-dimethyl-[1,2,4]triazolo[1,5-a]pyridin-6-yl)-6-isopropyl-2-(1-(2-(methylsulfonyl)ethyl)piperidin-4-yl)-4H-pyrrolo[3,2-d]thiazole], for which the pIC50 was 8.94 at human TLR8 and 8.52 at human TLR7.

As to `CNC(=O)CN1CCC(c2nc3c(C(C)C)c(-c4cn5ncnc5c(C)c4C)[nH]c3s2)CC1` [Example 56, 2-(4-(5-(7,8-dimethyl-[1,2,4]triazolo[1,5-a]pyridin-6-yl)-6-isopropyl-4H-pyrrolo[3,2-d]thiazol-2-yl)piperidin-1-yl)-N-methylacetamide], the negative-log IC50 (pIC50) on human TLR8 was 8.46; at human TLR7 it was 8.36.

Consider `CC(=O)N1CCC(c2nc3c(C(C)C)c(-c4cn5ncnc5c(C)c4C)[nH]c3s2)CC1` [Example 59, 1-(4-(5-(7,8-dimethyl-[1,2,4]triazolo[1,5-a]pyridin-6-yl)-6-isopropyl-4H-pyrrolo[3,2-d]thiazol-2-yl)piperidin-1-yl)ethan-1-one], for which the pIC50 is 7.33 on human TLR8 and 8.23 on human TLR7.

In the case of `Cc1c(-c2[nH]c3sc(C4CCN(C5COC5)CC4)nc3c2C(C)C)cn(C)c(=O)c1C` [Example 60, 5-(6-isopropyl-2-(1-(oxetan-3-yl)piperidin-4-yl)-4H-pyrrolo[3,2-d]thiazol-5-yl)-1,3,4-trimethylpyridin-2(1H)-one], the values for the negative logarithm of the IC50 (pIC50) on human TLR8 and on human TLR7 were 7.55 and 7.44, respectively.

In the case of `Cc1c(-c2[nH]c3sc(C4CCN(CCS(C)(=O)=O)CC4)nc3c2C(C)C)cn(C)c(=O)c1C` [Example 61, 5-(6-isopropyl-2-(1-(2-(methylsulfonyl)ethyl)piperidin-4-yl)-4H-pyrrolo[3,2-d]thiazol-5-yl)-1,3,4-trimethylpyridin-2(1H)-one], the pIC50 was 8.27 on human TLR8 and 7.64 on human TLR7.

With `Cc1c(-c2[nH]c3sc(C4CCN(CC(=O)N(C)C)CC4)nc3c2C(C)C)cn(C)c(=O)c1C` [Example 62, 2-(4-(6-isopropyl-5-(1,4,5-trimethyl-6-oxo-1,6-dihydropyridin-3-yl)-4H-pyrrolo[3,2-d]thiazol-2-yl)piperidin-1-yl)-N,N-dimethylacetamide], the pIC50 on human TLR8 is 7.65; at human TLR7, 7.05.

Take `CNC(=O)CN1CCC(c2nc3c(C(C)C)c(-c4cn(C)c(=O)c(C)c4C)[nH]c3s2)CC1` [Example 63, 2-(4-(6-isopropyl-5-(1,4,5-trimethyl-6-oxo-1,6-dihydropyridin-3-yl)-4H-pyrrolo[3,2-d]thiazol-2-yl)piperidin-1-yl)-N-methylacetamide]: the pIC50 at human TLR8 is 7.84; on human TLR7 it was 7.61.

As to `Cc1c(-c2[nH]c3sc(C4CCN(CC(N)=O)CC4)nc3c2C(C)C)cn(C)c(=O)c1C` [Example 64, 2-(4-(6-isopropyl-5-(1,4,5-trimethyl-6-oxo-1,6-dihydropyridin-3-yl)-4H-pyrrolo[3,2-d]thiazol-2-yl)piperidin-1-yl)acetamide], the pIC50 at human TLR8 was 7.98; on human TLR7, 7.49.

For `Cc1c(-c2[nH]c3sc(N4CCN(CCS(C)(=O)=O)CC4)nc3c2C(C)C)cn2ncnc2c1C` [Example 282, 5-(7,8-dimethyl-[1,2,4]triazolo[1,5-a]pyridin-6-yl)-6-isopropyl-2-(4-(2-(methylsulfonyl)ethyl)piperazin-1-yl)-4H-pyrrolo[3,2-d]thiazole], the negative logarithm of the IC50 (pIC50) on human TLR8 is 8.27; on human TLR7, 7.53.

Take `Cc1cc(-c2[nH]c3sc(N4CCN(CC(C)(C)O)C[C@H]4C)nc3c2C(C)C)cn2ncnc12` [Example 359, (R)-1-(4-(6-isopropyl-5-(8-methyl-[1,2,4]triazolo[1,5-a]pyridin-6-yl)-4H-pyrrolo[3,2-d]thiazol-2-yl)-3-methylpiperazin-1-yl)-2-methylpropan-2-ol]: on human TLR7, the negative logarithm of the IC50 (pIC50) is 5.95.
